The target of data set [1] is Sodium-dependent dopamine transporter (Homo sapiens) (UniProt Q01959). The following applies: Compound concentration 10.0 uM.
Data set [2] concerns the target Histamine H1 receptor (Homo sapiens) (UniProt P35367). The following applies: Compound concentration 10.0 uM.
The target in data set [3] is Leukotriene B4 receptor 1 (Homo sapiens, UniProt Q15722). Kind of data set: Binding assay (LTB4R ).
Data set [4] concerns the target Tyrosine-protein kinase ABL1 (Homo sapiens) (UniProt P00519). Kind of data set: Abl kinase (h) CEREP ligand profiling. As to conditions: Compound concentration 10.0 uM; call rule not given here.
Data set [5] addresses Sodium/potassium-transporting ATPase (Homo sapiens) (UniProt P05023+P14415+P05026+P50993+P54709+P13637+Q13733+P54710). The data set is described as follows: ATPase (Na+/K+) CEREP ligand profiling. As to conditions: Compound concentration 10.0 uM. The data set is classed as protein-complex assay.
The target in data set [6] is Beta-3 adrenergic receptor (Homo sapiens) (UniProt P13945). The data set is described as follows: beta 3 (h) CEREP ligand profiling. The following applies: Compound concentration 10.0 uM.
Data set [7] addresses Calcium/calmodulin-dependent protein kinase type II subunit alpha (Homo sapiens) (UniProt Q9UQM7). Kind of data set: CaMK2alpha (h) CEREP ligand profiling. As to conditions: Compound concentration 10.0 uM.
Data set [8] concerns the target Vascular endothelial growth factor receptor 1 (Homo sapiens) (UniProt P17948). The data set is described as follows: FLT-1 kinase (h) (VEGFR1) CEREP ligand profiling. The following applies: Compound concentration 10.0 uM.
For data set [9], the target named is Tyrosine-protein kinase Lyn (Homo sapiens) (UniProt P07948). Kind of data set: Lyn kinase (h) CEREP ligand profiling. As to conditions: Compound concentration 10.0 uM.
Data set [10] deals with T1, Muscarinic acetylcholine receptor M1 (Homo sapiens) (UniProt P11229).
T1 sequence (whole entry): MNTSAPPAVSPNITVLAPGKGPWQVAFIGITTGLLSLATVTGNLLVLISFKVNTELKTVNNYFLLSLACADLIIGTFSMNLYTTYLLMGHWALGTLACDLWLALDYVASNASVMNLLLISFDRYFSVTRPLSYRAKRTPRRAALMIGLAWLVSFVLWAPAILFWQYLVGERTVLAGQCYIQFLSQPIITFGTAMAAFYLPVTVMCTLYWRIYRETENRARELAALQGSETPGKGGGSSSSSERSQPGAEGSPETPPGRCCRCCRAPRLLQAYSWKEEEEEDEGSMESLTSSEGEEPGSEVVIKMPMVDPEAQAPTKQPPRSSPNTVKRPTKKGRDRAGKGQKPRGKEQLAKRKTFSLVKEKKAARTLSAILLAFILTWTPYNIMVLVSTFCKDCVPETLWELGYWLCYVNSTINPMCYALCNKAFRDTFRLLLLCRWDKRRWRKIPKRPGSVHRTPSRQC
The data set is described as follows: M1 (h) CEREP ligand profiling. The following applies: Compound concentration 10.0 uM.

Data set [11] concerns the target MAO-A (Amine oxidase [flavin-containing] A) (Homo sapiens, UniProt P21397). The data set is described as follows: MAO-A CEREP ligand profiling. As to conditions: compound concentration 10 uM.
The target in data set [12] is cGMP-specific 3',5'-cyclic phosphodiesterase (Homo sapiens) (UniProt O76074). The data set is described as follows: PDE5 (h) CEREP ligand profiling. The following applies: Compound concentration 10.0 uM.
Data set [13] concerns the target Activin receptor type-1B (Homo sapiens) (UniProt P36896). As to conditions: Compound concentration 1000.0 nM.
In data set [14] the target is Ankyrin repeat and protein kinase domain-containing protein 1 (Homo sapiens) (UniProt Q8NFD2). The following applies: Compound concentration 1000.0 nM.
The target of data set [15] is Aurora kinase C (Homo sapiens) (UniProt Q9UQB9). As to conditions: Compound concentration 1000.0 nM.
Data set [16] has as its target Tyrosine-protein kinase Blk (Homo sapiens) (UniProt P51451). As to conditions: Compound concentration 1000.0 nM.
In data set [17] the target is Bone morphogenetic protein receptor type-1A (Homo sapiens) (UniProt P36894). As to conditions: Compound concentration 1000.0 nM.
Data set [18] deals with Bone morphogenetic protein receptor type-1B (Homo sapiens) (UniProt O00238). As to conditions: Compound concentration 1000.0 nM.
Data set [19] concerns the target Casein kinase I isoform gamma-1 (Homo sapiens) (UniProt Q9HCP0). As to conditions: Compound concentration 1000.0 nM.
Data set [20] has as its target Serine/threonine-protein kinase DCLK3 (Homo sapiens) (UniProt Q9C098). The following applies: Compound concentration 1000.0 nM.
Data set [21] addresses Mitogen-activated protein kinase kinase kinase 12 (Homo sapiens) (UniProt Q12852). As to conditions: Compound concentration 1000.0 nM.
Data set [22] deals with Receptor-type tyrosine-protein kinase FLT3 (Homo sapiens), P36888 [N841I]. As to conditions: Compound concentration 1000.0 nM.
The target of data set [23] is Cyclin-G-associated kinase (Homo sapiens) (UniProt O14976). The following applies: Compound concentration 1000.0 nM.
The target in data set [24] is Homeodomain-interacting protein kinase 2 (Homo sapiens) (UniProt Q9H2X6). As to conditions: Compound concentration 1000.0 nM.
Data set [25] deals with Serine/threonine-protein kinase LATS2 (Homo sapiens) (UniProt Q9NRM7). The following applies: Compound concentration 1000.0 nM.
Data set [26] concerns the target Mitogen-activated protein kinase kinase kinase 15 (Homo sapiens) (UniProt Q6ZN16). The following applies: Compound concentration 1000.0 nM.
Data set [27] concerns the target Dual specificity mitogen-activated protein kinase kinase 5 (Homo sapiens) (UniProt Q13163). As to conditions: Compound concentration 1000.0 nM.
The test system of data set [28] is Hepatocyte growth factor receptor (Homo sapiens), P08581 [Y1235D]. The following applies: Compound concentration 1000.0 nM.
Data set [29] concerns the target MAP kinase-interacting serine/threonine-protein kinase 1 (Homo sapiens) (UniProt Q9BUB5). The following applies: Compound concentration 1000.0 nM.
In data set [30] the target is Serine/threonine-protein kinase PAK 1 (Homo sapiens) (UniProt Q13153). The following applies: Compound concentration 1000.0 nM.
Data set [31] deals with Phosphatidylinositol 4,5-bisphosphate 3-kinase catalytic subunit alpha isoform (Homo sapiens), P42336 [E542K]. The following applies: Compound concentration 1000.0 nM.
For data set [32], the target named is cAMP-dependent protein kinase catalytic subunit PRKX (Homo sapiens) (UniProt P51817). The following applies: Compound concentration 1000.0 nM.
Data set [33] concerns the target Serine/threonine-protein kinase SIK1 (Homo sapiens) (UniProt P57059). The following applies: Compound concentration 1000.0 nM.
The target of data set [34] is Tyrosine-protein kinase receptor Tie-1 (Homo sapiens) (UniProt P35590). The following applies: Compound concentration 1000.0 nM.
The target in data set [35] is Testis-specific serine/threonine-protein kinase 3 (Homo sapiens) (UniProt Q96PN8). As to conditions: Compound concentration 1000.0 nM.
Data set [36] addresses Serine/threonine-protein kinase ULK3 (Homo sapiens) (UniProt Q6PHR2). The following applies: Compound concentration 1000.0 nM.
Data set [37] has as its target Acetylcholine receptor, muscle-type, subunit alpha-1 (Homo sapiens) (UniProt P02708). The data set is described as follows: N (muscle-type) (h) CEREP ligand profiling. The following applies: Compound concentration 10.0 uM.

One may read the inhibition as the drop in the measured response relative to a control, in per cent. What is called Ki is the dissociation constant of the complex between target and ligand, obtained from inhibition or displacement.

Chain of Histamine H1 receptor (Homo sapiens) (P35367 whole entry): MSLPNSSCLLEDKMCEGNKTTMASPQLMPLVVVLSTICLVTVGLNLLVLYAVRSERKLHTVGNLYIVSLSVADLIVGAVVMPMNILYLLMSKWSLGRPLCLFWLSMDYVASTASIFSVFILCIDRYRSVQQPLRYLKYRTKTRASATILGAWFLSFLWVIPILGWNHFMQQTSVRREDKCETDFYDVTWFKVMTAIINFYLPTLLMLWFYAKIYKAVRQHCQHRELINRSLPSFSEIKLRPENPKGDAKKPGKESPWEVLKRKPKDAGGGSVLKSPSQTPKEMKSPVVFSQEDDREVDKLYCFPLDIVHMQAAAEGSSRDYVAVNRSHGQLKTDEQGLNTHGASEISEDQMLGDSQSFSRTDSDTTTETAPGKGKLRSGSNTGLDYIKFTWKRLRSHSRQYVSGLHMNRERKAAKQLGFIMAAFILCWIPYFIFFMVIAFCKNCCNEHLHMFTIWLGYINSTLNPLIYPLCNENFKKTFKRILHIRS
Chain of Serine/threonine-protein kinase ULK3 (Homo sapiens) (Q6PHR2 whole entry): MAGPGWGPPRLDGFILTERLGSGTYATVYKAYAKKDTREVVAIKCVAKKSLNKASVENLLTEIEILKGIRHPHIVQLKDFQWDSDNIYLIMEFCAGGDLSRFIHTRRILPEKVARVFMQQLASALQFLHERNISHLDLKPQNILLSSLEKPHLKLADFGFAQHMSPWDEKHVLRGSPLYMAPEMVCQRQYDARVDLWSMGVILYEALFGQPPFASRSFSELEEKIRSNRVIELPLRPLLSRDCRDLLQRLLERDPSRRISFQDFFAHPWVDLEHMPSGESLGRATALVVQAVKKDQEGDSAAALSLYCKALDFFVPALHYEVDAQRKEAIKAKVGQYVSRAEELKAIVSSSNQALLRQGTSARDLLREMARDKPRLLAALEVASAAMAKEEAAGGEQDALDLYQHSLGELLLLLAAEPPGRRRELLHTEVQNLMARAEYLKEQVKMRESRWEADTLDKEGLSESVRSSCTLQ
Chain of Tyrosine-protein kinase receptor Tie-1 (Homo sapiens) (P35590 whole entry): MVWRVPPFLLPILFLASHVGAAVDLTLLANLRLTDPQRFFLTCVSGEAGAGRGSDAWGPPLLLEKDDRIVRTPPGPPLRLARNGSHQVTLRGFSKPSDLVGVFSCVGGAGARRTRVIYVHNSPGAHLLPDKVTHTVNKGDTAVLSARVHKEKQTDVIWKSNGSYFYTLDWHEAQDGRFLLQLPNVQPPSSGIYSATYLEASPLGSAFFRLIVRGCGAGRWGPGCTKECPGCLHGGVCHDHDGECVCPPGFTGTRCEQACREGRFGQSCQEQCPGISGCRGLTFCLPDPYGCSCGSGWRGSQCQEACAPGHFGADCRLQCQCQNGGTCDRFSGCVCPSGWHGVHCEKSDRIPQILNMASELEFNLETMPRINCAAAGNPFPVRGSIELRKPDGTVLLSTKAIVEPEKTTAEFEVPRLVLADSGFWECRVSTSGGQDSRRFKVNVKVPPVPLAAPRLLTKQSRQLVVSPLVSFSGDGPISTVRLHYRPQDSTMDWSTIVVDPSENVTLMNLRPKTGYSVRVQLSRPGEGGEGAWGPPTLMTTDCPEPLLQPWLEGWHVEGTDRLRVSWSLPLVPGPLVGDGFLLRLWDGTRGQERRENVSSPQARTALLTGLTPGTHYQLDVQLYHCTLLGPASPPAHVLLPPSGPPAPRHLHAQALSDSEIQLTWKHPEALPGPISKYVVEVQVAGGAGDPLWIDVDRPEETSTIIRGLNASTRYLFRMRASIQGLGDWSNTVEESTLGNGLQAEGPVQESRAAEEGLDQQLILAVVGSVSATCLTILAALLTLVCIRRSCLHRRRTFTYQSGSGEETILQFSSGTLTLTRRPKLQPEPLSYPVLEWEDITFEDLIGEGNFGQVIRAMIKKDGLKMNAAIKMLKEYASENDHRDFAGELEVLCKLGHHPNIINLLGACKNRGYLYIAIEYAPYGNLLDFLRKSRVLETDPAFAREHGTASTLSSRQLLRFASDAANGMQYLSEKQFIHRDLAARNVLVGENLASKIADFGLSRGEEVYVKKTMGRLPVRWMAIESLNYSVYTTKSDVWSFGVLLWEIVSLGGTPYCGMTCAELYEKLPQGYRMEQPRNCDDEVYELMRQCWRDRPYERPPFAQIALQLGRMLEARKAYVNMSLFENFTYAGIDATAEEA
Chain of Acetylcholine receptor, muscle-type, subunit alpha-1 (Homo sapiens) (P02708 whole entry, looked up): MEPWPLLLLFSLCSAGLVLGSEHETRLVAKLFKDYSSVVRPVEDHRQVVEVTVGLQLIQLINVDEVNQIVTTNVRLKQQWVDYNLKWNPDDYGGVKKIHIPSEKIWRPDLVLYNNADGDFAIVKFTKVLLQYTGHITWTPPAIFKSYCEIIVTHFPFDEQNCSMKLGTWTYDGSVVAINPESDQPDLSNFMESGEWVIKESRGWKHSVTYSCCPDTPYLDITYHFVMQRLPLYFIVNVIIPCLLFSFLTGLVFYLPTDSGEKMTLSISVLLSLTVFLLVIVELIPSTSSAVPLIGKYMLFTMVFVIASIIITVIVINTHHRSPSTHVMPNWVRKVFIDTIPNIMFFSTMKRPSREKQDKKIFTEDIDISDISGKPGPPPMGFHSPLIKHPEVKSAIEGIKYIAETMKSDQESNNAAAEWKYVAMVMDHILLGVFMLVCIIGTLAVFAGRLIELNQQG
Chain of Serine/threonine-protein kinase SIK1 (Homo sapiens) (P57059 whole entry): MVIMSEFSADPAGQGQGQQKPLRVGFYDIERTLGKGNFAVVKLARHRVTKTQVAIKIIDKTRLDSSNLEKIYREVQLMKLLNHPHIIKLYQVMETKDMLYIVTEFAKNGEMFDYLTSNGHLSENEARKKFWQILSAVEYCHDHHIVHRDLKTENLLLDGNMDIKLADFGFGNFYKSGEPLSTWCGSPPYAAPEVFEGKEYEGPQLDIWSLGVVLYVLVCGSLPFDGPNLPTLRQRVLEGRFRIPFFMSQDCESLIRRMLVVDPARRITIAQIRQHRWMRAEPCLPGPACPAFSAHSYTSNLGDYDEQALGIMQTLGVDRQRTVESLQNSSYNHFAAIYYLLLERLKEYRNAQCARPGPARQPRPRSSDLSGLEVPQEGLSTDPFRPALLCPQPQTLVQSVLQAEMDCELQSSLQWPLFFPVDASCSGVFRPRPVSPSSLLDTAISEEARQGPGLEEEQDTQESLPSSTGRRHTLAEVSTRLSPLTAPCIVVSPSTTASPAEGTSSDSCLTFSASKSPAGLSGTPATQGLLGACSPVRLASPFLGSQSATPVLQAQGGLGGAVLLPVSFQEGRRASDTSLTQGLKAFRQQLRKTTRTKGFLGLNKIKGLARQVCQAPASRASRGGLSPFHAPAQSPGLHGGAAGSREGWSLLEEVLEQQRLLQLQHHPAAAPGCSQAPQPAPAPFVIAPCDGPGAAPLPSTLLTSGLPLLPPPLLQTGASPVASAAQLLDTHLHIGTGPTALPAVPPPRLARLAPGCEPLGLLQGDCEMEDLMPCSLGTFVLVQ
Chain of Bone morphogenetic protein receptor type-1A (Homo sapiens) (P36894 whole entry): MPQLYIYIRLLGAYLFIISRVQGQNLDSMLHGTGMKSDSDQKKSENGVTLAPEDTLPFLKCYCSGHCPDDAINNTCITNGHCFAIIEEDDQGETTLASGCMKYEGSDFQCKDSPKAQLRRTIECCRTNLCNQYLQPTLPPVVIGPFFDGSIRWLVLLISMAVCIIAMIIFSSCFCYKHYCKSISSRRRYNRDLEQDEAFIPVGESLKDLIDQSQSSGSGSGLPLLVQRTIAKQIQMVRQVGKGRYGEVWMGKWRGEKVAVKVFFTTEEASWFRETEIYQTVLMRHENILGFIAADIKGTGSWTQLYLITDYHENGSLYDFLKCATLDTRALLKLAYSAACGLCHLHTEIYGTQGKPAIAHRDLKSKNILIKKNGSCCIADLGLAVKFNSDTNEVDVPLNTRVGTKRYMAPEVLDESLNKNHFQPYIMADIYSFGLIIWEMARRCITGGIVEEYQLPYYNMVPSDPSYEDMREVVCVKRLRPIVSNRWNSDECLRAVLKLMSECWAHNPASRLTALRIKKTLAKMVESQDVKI
Chain of Sodium-dependent dopamine transporter (Homo sapiens) (Q01959 whole entry): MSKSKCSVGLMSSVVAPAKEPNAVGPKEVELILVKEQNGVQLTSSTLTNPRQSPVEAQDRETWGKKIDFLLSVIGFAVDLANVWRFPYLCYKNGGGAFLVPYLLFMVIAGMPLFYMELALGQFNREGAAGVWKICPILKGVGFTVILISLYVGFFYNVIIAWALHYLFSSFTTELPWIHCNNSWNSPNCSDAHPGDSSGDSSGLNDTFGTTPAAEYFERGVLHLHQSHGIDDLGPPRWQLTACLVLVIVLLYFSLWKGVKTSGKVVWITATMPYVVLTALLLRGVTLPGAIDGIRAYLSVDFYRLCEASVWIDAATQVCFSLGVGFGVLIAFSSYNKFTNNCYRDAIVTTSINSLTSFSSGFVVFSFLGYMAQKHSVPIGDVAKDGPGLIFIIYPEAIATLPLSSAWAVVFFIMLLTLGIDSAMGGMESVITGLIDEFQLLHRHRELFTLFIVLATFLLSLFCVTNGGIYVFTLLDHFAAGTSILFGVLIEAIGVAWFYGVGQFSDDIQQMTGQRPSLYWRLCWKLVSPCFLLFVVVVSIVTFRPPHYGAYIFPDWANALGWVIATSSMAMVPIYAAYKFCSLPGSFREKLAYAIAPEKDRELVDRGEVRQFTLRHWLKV
Chain of Leukotriene B4 receptor 1 (Q15722 whole entry): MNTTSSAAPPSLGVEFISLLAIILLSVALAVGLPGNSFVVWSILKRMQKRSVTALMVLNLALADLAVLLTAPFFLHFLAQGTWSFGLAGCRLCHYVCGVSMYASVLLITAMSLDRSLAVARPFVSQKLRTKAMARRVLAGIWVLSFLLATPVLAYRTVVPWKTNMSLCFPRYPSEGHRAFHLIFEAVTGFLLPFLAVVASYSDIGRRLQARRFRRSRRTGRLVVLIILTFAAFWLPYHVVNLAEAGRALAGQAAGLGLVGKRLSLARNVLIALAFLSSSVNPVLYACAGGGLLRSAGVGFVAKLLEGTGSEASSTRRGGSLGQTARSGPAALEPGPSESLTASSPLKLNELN

Consider `O=C(c1ccc(F)cc1)N1CC(COc2ccc(Br)cc2)(C(=O)O)C1` [PF-04475866], for which the inhibition is 6.07% in data set [1] and -4.38% in [2].

In the case of `COc1ccc2cc(OCC3(C(=O)O)CN(C(=O)c4ccc(F)cc4)C3)ccc2c1` [PF-04418948], the Ki in [3] is given as 4.8 µM (not active). The inhibition is 9% in data set [4]; 5% in data set [5]; 3% in data set [6]; 5% in [7]; 9% in data set [8]; 2% in [9]. Moreover, the inhibition was 9% in data set [10], 6% in [12] and -10% in data set [37]. For the same molecule, the inhibition at 10 µM in data set [11] is on record as 3% (not active). The residual activity in [13] was 78%; in data set [14] it was 86%; in [15], 98%; in data set [16], 93%; in data set [17] it was 88%; in [18] it was 95%. The residual activity is 94% in data set [19]; 98% in data set [20]; 97% in [21]; 76% in data set [22]; 88% in data set [23]; 78% in data set [24]. The residual activity in [25] is 90%; in data set [26], 94%; in [27] it was 93%; in data set [28], 91%; in [29], 93%; in data set [30], 87%. For the same molecule, the residual activity in data set [31] was 50%; in [32], 90%; in [33] it was 97%; in data set [34] it was 100%; in data set [35], 82%; in [36] it was 86%.

The values above are taken from ChEMBL document CHEMBL4507298 (2021).
